In US8765696B2, “Steroid compound” (Mikasa Seiyaku Co., Ltd., priority 2009, dated 2014):

Key:
[1] = tested on: croton oil-induced ear edema; assay: Test for croton oil-induced ear edema; assay type: in vivo; details: rat right auricle; for Edema suppression rate of 6 hours after administration of inflammatory agent (%): 6 hours after croton oil; for Edema suppression rate of 24 hours after administration of inflammatory agent (%): 24 hours after croton oil
Experimental: Croton oil ear edema test, which is a representative model for dermatitis, was used to study the pharmacological effect of compounds of the present invention.
Five individuals/group of rats of 5 weeks old (body weight, 128 g to 169 g) were used. One day before the test, the thickness of the right ear was measured under ether anesthesia using a dial thickness gauge, to obtain the Pre value. On the day of the test, 20 mg each of the ointments to be tested, which had been prepared to have various concentrations in white vaseline, was applied to the right auricle (both sides) of each rat, and a collar was then placed around the neck of the rat to prevent contacting/scratching and removal of the drug. Two hours later, the ointment was wiped off under ether anesthesia using absorbent cotton, and 0.1 mL of 5% croton oil (croton oil:ether:pyridine:distilled water=1:14:4:1) solution was applied dropwise to the both sides of the auricle while drying the solution with a drier (air blow), to induce ear edema. Six and 24 hours after the induction of the edema, the thickness of the right auricle was measured under ether anesthesia, and the edema rate and the edema suppression rate were calculated according to the equations below, which suppression rate is shown in Table 1.

[2] = tested on: croton oil-induced granuloma; assay: Test for croton oil-induced granuloma (air pouch exudate and thymus weight); assay type: in vivo, rat; details: male Wistar rats, 7 days, vs control group
Excerpt: Using the croton oil granuloma test, which is a test method with which the local anti-inflammatory action and the systemic side effect can be evaluated at the same time, the pharmacological effect and the systemic side effect of the compounds of the present invention were studied.
Five individuals/group of male Wistar rats having body weights of 180 to 225 g were used, and hair on the back of these rats was shaved with a clipper under ether anesthesia, followed by preparing an air pouch by subcutaneous injection of 20 mL of air at the back. On the next day, 1 mL of cottonseed oil containing 1% croton oil was administered to the pouch. Each test drug was suspended in the croton oil-containing cottonseed oil before administration. Seven days later, blood was collected from abdominal aorta under ether anesthesia, and exudate in the pouch was collected and its fluid amount was measured. Further, the thymus was removed, and its weight was measured. The weight of the exudate and the weight of the thymus are shown in Table 2 as the suppression rate and the atrophy rate (%) with respect to those of the control group.

DNCB-induced dermatitis = assay: Test for DNCB-induced dermatitis (skin thickness and thymus weight); assay type: in vivo; details: rat, 0.1 mL once per day, 6 times
Experimental: The DNCB-induced dermatitis test, which is a representative model for allergic dermatitis, was used to study the pharmacological effect of the compound of the present invention.
Abdominal hair of rats (body weight, 205 to 230 g) under isoflurane anesthesia was shaved with an electric clipper and a shaver, and a test region having a size of 3 cm×4 cm was prepared, followed by applying 0.4 mL of 1% DNCB/acetone solution to the inside of the region, to carry out sensitization. Two weeks later, 1 mL of 1% DNCB/acetone solution was applied to the inside of the region to cause induction, and 4 days thereafter, reinduction was carried out. Two days after the reinduction, the skin was removed from the test region, and 5 predetermined positions were punched out using a punch having a diameter of 12 mm, followed by measuring the skin thickness using a dial thickness gauge. Further, to investigate the influence of side effects, the thymus was removed to measure its weight. Application of the test drug was carried out 4 hours after the first dermatitis induction such that 0.1 mL of the ointment is uniformly applied over the test region. Thereafter, the test drug was applied once per day, a total of 6 times until the next day of the reinduction (the day before removal of the skin). The skin thickness and the weight of the thymus are shown in Table 3 as the suppression rate and the atrophy rate (%) relative to those of the control group.

[3] = Amount of production of active metabolite in inflamed skin and non-inflamed skin; assay type: in vivo; details: hairless rat, 0.1 mL of 0.1% ointment, LC/MS/MS, Mean ± S.D.
Excerpt: The compounds of the present invention have the advantageous feature that they show the pharmacological effect after being metabolized to an active metabolite (des-ciclesonide) at the site of inflammation. The amount of the active metabolite produced when the compound of the present invention was applied to inflamed skin (skin whose dermatitis was induced by DNCB) or non-inflamed skin (normal skin) was compared.
Using, as the test region, an area of 3 cm×4 cm on the abdomen of a hairless rat of 9 weeks old, 0.4 mL of 1% DNCB/acetone solution was applied to the inside of the region under isoflurane anesthesia, to carry out sensitization. Two weeks later, 1 mL of 1% DNCB/acetone solution was applied to the inside of the region to cause induction, and, 48 hours thereafter, 0.1 mL of a test drug (0.1% ointment) was uniformly applied to the test region. The skin was removed 48 hours after the beginning of the application of the test drug. On the other hand, the test drug was also applied to a normal animal which had not been subjected to the sensitization and the induction, and the skin was removed 48 hours later. […] After centrifugation (10,000 g, 4° C., 5 min.), the centrifugal supernatant was subjected to quantification of the amount of the active metabolite (des-ciclesonide) using LC/MS/MS. […]

[4] = drug concentration 0.01% ointment
[5] = drug concentration 0.10% ointment

| Compound | Edema suppression rate of 6 hours after administration of inflammatory agent (%) ([1]; ointment concentration 0.001%) | Edema suppression rate of 24 hours after administration of inflammatory agent (%) ([1]; ointment concentration 0.001%) | Edema suppression rate of 6 hours after administration of inflammatory agent (%) ([1]; ointment concentration 0.01%) | Edema suppression rate of 24 hours after administration of inflammatory agent (%) ([1]; ointment concentration 0.01%) | Edema suppression rate of 6 hours after administration of inflammatory agent (%) ([1]; ointment concentration 0.1%) | Edema suppression rate of 24 hours after administration of inflammatory agent (%) ([1]; ointment concentration 0.1%) | Rate of exudates suppression (pharmacological effects) ([2]; dose 0.001 mg/rat into pouch) [%] | Rate of thymus atrophy (systemic side effects) ([2]; dose 0.001 mg/rat into pouch) [%] | Rate of exudates suppression (pharmacological effects) ([2]; dose 0.01 mg/rat into pouch) [%] | Rate of thymus atrophy (systemic side effects) ([2]; dose 0.01 mg/rat into pouch) [%] | Rate of exudates suppression (pharmacological effects) ([2]; dose 0.1 mg/rat into pouch) [%] | Rate of thymus atrophy (systemic side effects) ([2]; dose 0.1 mg/rat into pouch) [%] | Rate of exudates suppression (pharmacological effects) ([2]; dose 1 mg/rat into pouch) [%] | Rate of thymus atrophy (systemic side effects) ([2]; dose 1 mg/rat into pouch) [%] | Rate of Skin thickness suppression (pharmacological effects) (%) (DNCB-induced dermatitis; [4]) | Rate of thymus atrophy (systemic side effects) (%) (DNCB-induced dermatitis; [4]) | Rate of Skin thickness suppression (pharmacological effects) (%) (DNCB-induced dermatitis; [5]) | Rate of thymus atrophy (systemic side effects) (%) (DNCB-induced dermatitis; [5]) | Drug concentration of active metabolite (Compound C), 48 hours after test drug were applied once ([3]; DNCB-induced dermatitis skin) | Drug concentration of active metabolite (Compound C), 48 hours after test drug were applied once ([3]; non-inflamed skin (normal skin)) |
| --- | --- | --- | --- | --- | --- | --- | --- | --- | --- | --- | --- | --- | --- | --- | --- | --- | --- | --- | --- | --- |
| CC(=O)OCC1OC(OCC(=O)C23OC(C4CCCCC4)OC2CC2C4CCC5=CC(=O)C=CC5(C)C4C(O)CC23C)C(OC(C)=O)C(OC(C)=O)C1OC(C)=O (stereo not shown) [Compound 3] | 50.3 | 48.1 | 46.1 | 58.0 | 51.7 | 56.0 | 7.9 | 0.0 | 41.6 | 0.0 | 92.7 | 0.0 | 96.3 | 2.4 | 46.1 | 0.0 | 60.5 | 0.0 | 1272 ± 276 (ng/g) | 119 ± 48 (ng/g) |
| CC(=O)OC1C(C)OC(OCC(=O)C23OC(C4CCCCC4)OC2CC2C4CCC5=CC(=O)C=CC5(C)C4C(O)CC23C)C(OC(C)=O)C1OC(C)=O (stereo not shown) [Compound 9] | 24.6 | 17.8 | 36.7 | 8.6 | 23.0 | 21.6 | 10.4 | 12.2 | 7.3 | 10.8 | 26.1 | 9.4 | 58.2 | 15.5 | – | – | – | – | – | – |
| CC(=O)OC1C(C)OC(OCC(=O)C23OC(C4CCCCC4)OC2CC2C4CCC5=CC(=O)C=CC5(C)C4C(O)CC23C)C(OC(C)=O)C1OC(C)=O (stereo not shown) [Compound 10] | 42.4 | 45.8 | 55.9 | 33.2 | 38.9 | 39.9 | 4.6 | 0.0 | 0.0 | 0.0 | 4.8 | 0.0 | 5.3 | 0.0 | – | – | – | – | – | – |
| CC(=O)NC1C(OCC(=O)C23OC(C4CCCCC4)OC2CC2C4CCC5=CC(=O)C=CC5(C)C4C(O)CC23C)OC(COC(C)=O)C(OC(C)=O)C1OC(C)=O (stereo not shown) [Compound 11] | 24.5 | 39.4 | 19.0 | 26.5 | 33.6 | 48.0 | 13.1 | 3.9 | 21.2 | 7.9 | 66.0 | 10.8 | 93.4 | 16.0 | – | – | – | – | – | – |
| CC(=O)NC1C(OCC(=O)C23OC(C4CCCCC4)OC2CC2C4CCC5=CC(=O)C=CC5(C)C4C(O)CC23C)OC(COC(C)=O)C(OC(C)=O)C1OC(C)=O (stereo not shown) [Compound 12] | 29.9 | 36.6 | 16.7 | 29.6 | 12.4 | 9.1 | 3.6 | 0.0 | 0.0 | 5.8 | 0.0 | 17.7 | 76.5 | 8.0 | – | – | – | – | – | – |
